Experimental data: patent publication EP2062893A1, “Fused imidazoles for cancer treatment” (Bayer Schering Pharma AG, priority 2007, dated 2009)

Assays:
Format in all cases: cell-based
OvCAR3 cells = assay: Cellular proliferation / Cytotoxicity assay (Alamar Blue / Resazurin cell viability); settings: Homo sapiens, OVCAR-3, 48h incubation, read-out: Anti-proliferative / Cytotoxic activity (OvCAR3 cells)
Procedure: Wells containing untreated control cells were filled with 200 µl DMEM (Dulbecco's Modified Eagle Medium) containing 0.5vol% v:v DMSO. The cells are then incubated with the substances for 48h at 37°C in a humidified atmosphere containing 5vol% CO2. To determine the viability of the cells, 20 µl of a Resazurin solution (90mg / I) are added. […] Viabilities are expressed as % values.

[1] = system: phosphorylated Akt protein; assay: Cellular PI3K / Akt pathway assay (phospho-Akt Ser473 sandwich ELISA); settings: Homo sapiens; MCF7 cells, ß-Heregulin (20ng/ml) stimulation, 48h incubation
Procedure: In order to study the cellular activity of the compounds according to the present invention, an Enzyme Linked Immunosorbent Assay (ELISA)-based assay has been used specific phospho-AKT. The assay is based on a Sandwich ELISA kit (PathScan™ Phospho-Akt1 (Ser473); Cell Signaling, USA; #7160). The ELISA Kit detects endogenous levels of phosphorylated Akt protein. A phospho-Akt (Ser473) antibody (Cell Signaling, USA; #9271) has been coated onto the microwells. After incubation with cell lysates, the coated antibody captures the phosphorylated Akt protein. Following extensive washing, Akt1 monoclonal antibody (Cell Signaling, USA; #2967) is added to detect the captured phospho-Akt1 protein. HRP-linked anti-mouse antibody (HRP: horseradish peroxidase; Cell Signaling, USA; #7076) is then used to recognize the bound detection antibody. HRP substrate (= 3,3',5,5'-tetramethylbenzidine (TMB); Cell Signaling, USA; #7160) is added to develop colour. The magnitude of optical density for this developed color is proportional to the quantity of phosphorylated Akt protein. MCF7 cells (ATCC HTB-22) are seeded into 96 well fate bottom plates at a density of 10000 cells/well. 24 hours after seeding, the cells are serum starved using low-serum medium (IMEM media including 0,1% charcoal treated FCS (FCS: fetal calf serum)). […] To stimulate Akt phosphorylation, ß-Heregulin (20ng/ml ß-HRG) is added in parallel to the compounds. Wells containing unstimulated control cells (no ß-Heregulin stimulation) are incubated with or without the diluted compound. Wells containing untreated control cells (no compound) are filled with medium containing 0.5% v:v DMSO and are or are not stimulated with ß-Heregulin. Cells are harvested and lysed with brief sonification in 1x cell lysis buffer (20mM Tris (pH7.5), 150 mM NaCl, 1 mM ethylene diaminetetraacetate (EDTA), 1 mM ethylene glycolbis(2-aminoethyl)-N,N,N',N'-tetraacetic acid (EGTA), 1vol% Triton X-100, 2.5mM sodium pyrophosphate, 1 mM β-glycerolphosphate, 1 mM Na3VO4, 1µg/ml leupeptin). The lysate is centrifuged for 10 min. at 4°C and the supernatant is transferred to a new tube. 100 µl of sample diluent (0.1vol% Tween-20, 0.1vol% sodium azide in phosphate buffered saline (PBS)) are added to a microcentrifuge tube and 100 µl of cell lysate are transferred into the tube and vortexed. 100 µl of each diluted cell lysate are added to the appropriate ELISA well, and incubated overnight at 4°C. The plates are washed 4 times with 1x wash buffer (1vol% tween-20, 0.33vol% thymol, in PBS). Next 100 µl of detection antibody (Akt1 (2H10) monoclonal detection antibody; Cell Signaling, USA; #2967) are added to each well and incubation continued for 1h at 37°C. The washing procedure is repeated between each step. 100µl of secondary antibody (anti-mouse IgG HRP-linked antibody; Cell Signaling, USA; #7076) are added to each well and incubated for 30 min. at 37°C. Than, 100µl of TMB substrate (0.05% 3,3',5,5' tetramethylbenzidine, 0.1 % hydrogen peroxide, complex polypeptides in a buffered solution; Cell Signaling, USA; #7160) are added to each well and incubated for 30 min. at 25°C. Finally 100 µl of STOP solution (0.05vol% α and β unsaturated carbonyl compound) are added to each well and the plate are shaked gently. The absorbance is measured at λ =450 nm (Wallac Victor2; Perkin Elmer, USA) within 30 min. after adding the STOP solution. The analysis of the data is performed using a statistical program (Excel; Microsoft, USA). Preferred compounds show an inhibitory activity towards Akt phosphorylation below 10µM.

phosphorylated GSK3 = assay: Cellular pGSK3 assay (phospho-GSK3 Ser9 sandwich ELISA); settings: Homo sapiens; MCF7 cells, 48h incubation, IC50 of pGSK3 inhibition
Procedure: In order to study the cellular activity of the compounds according to the present invention, an ELISA-based assay has been established for the phosphorylated protein glycogen synthetase kinase 3 (GSK3). The assay is based on a solid phase sandwich ELISA that detects endogenous levels of phosphorylated GSK3 using a phospho-GSK3 (Ser9) specific antibody (BioSource International, Inc.; Catalog #KHO0461). After incubation with cell lysates, the coated antibody captures the phosphorylated GSK3 protein. Following extensive washing, GSK3 polyclonal antibody is added to detect the captured phospho-GSK3 protein. Secondary antibody (anti-rabbit IgG-HRP) is then used to recognize the bound detection antibody. After the second incubation and washing to remove all the excess anti-rabbit IgG-HRP, a substrate solution is added, which is acted upon by the bound enzyme to produce color. The intensity of this colored product is directly proportional to the concentration of GSK-3β [pS9] present in the original specimen. MCF7 cells (ATCC HTB-22) were seeded into 96 well fate bottom plates at a density of 10000 cells/well. After 24 h 1 µl each of the compound dilutions (test compounds were dissolved as 10 mM solutions in dimethylsulfoxide (DMSO) and subsequently diluted) were added into each well of the 96 well plates and incubated for 48h at 37°C in a humidified athmosphere containing 5% CO2. Cells were harvested and lysed in cell extraction buffer (10 mM Tris, pH 7.4, 100 mM NaCl, 1 mM EDTA, 1 mM EGTA, 1 mM NaF, 20 mM Na4P2O7, 2 mM Na3VO4, 1% Triton X-100, 10vol% glycerol, 0.1vol% SDS, 0.5vol% deoxycholate, 1 mM phenylmethylsulfonylfluorid (PMSF)). The lysate were centrifuged for 10 min. at 4°C and the supernatant were transferred to a new tube. 50 µl of sample diluent (standard diluent buffer, Biosource) were added and 100 µl of cell lysate transferred into the tube and vortexed. 100 µl of each diluted cell lysate were added to the appropriate ELISA well plate and incubated for 3h at room temperature. The plates were washed 4 times with 1x wash buffer (Biosource). 50 µl of detection antibody (GSK3 (Ser9) detection antibody; BioSource) were added to each well and incubated for 30 min. at room temperature. The washing procedure was repeated between each step. 100µl of HRP-linked secondary antibody (anti-mouse IgG HRP-linked antibody) were added to each well and incubated for 30 min. at room temperature. 100µl of TMB substrate (0.05vol% 3,3',5,5' tetramethylbenzidine, 0.1vol% hydrogen peroxide, complex polypeptides in a buffered solution; Biosource) were added to each well and incubated for 30 min. at room temperature. Finally 100 µl of Stop solution (0.05vol% α and β unsaturated carbonyl compound) were added to each well and the plate were shaked gently for a few seconds. The absorbance was measured at λ = 450 nm (Wallac Victor2; Perkin Elmer, USA) within 30 min. after adding the stop solution. The analysis of the data was performed using a statistical program (Excel; Microsoft, USA) and the IC50 of pGSK3 inhibition was determined.

Structure (SMILES) | IC50 [1] | IC50 (phosphorylated GSK3) | IC50 (OvCAR3 cells)
Clc1ccc2nc(-c3ccc(CN4CCC(c5nnc(-c6ccccn6)[nH]5)CC4)cc3)c(-c3ccccc3)n2c1 [Example 7, 6-chloro-3-phenyl-2-(4-{[4-(5-pyridin-2-yl-4H-1,2,4-triazol-3-yl)piperidin-1-yl]methyl}phenyl)imidazo[1,2-a]pyridine] | < 1 µM | 1 to 10 µM | < 10 µM
Fc1ccc(-c2c(-c3ccc(CN4CCC(c5n[nH]c(-c6ccccn6)n5)CC4)cc3)nc3ccccn23)cc1 [Example 9, 3-(4-fluorophenyl)-2-(4-{[4-(5-pyridin-2-yl-1,2,4-triazol-3-yl)piperidin-1-yl]methyl}phenyl)imidazo[1,2-a]pyridine] | 1 to 10 µM | 1 to 10 µM | > 10 µM
COc1ccc(-c2c(-c3ccc(CN4CCC(c5n[nH]c(-c6ccccn6)n5)CC4)cc3)nc3ccccn23)cc1 [Example 15, 3-(4-methoxyphenyl)-2-(4-{[4-(5-pyridin-2-yl-1,2,4-triazol-3-yl)piperidin-1-yl]methyl}phenyl)imidazo[1,2-a]pyridine] | > 10 µM | 1 to 10 µM | > 10 µM
c1ccc(-c2nc(C3CCN(Cc4ccc(-c5nc6ccccn6c5-c5ccncc5)cc4)CC3)n[nH]2)nc1 [Example 16, 3-pyridin-4-yl-2-(4-{[4-(5-pyridin-2-yl-1,2,4-triazol-3-yl)piperidin-1-yl]methyl}phenyl)imidazo[1,2-a]pyridine] | 1 to 10 µM | 1 to 10 µM | < 10 µM
Fc1ccc(-c2c(-c3ccc(CN4CCC(c5n[nH]c(-c6ccccn6)n5)CC4)cc3)nc3ncccn23)cc1 [Example 18, 3-(4-fluorophenyl)-2-(4-{[4-(5-pyridin-2-yl-1,2,4-triazol-3-yl)piperidin-1-yl]methyl}phenyl)imidazo[1,2-a]pyrimidine] | 1 to 10 µM | 1 to 10 µM | < 10 µM
COc1ccc(-c2c(-c3ccc(CN4CCC(c5n[nH]c(-c6ccccn6)n5)CC4)cc3)nc3ncccn23)cc1 [Example 20, 3-(4-methoxyphenyl)-2-(4-{[4-(5-pyridin-2-yl-1,2,4-triazol-3-yl)piperidin-1-yl]methyl}phenyl)imidazo[1,2-a]pyrimidine] | > 10 µM | > 10 µM | > 10 µM

More lines, main results first:

IC50 [1] | IC50 (phosphorylated GSK3) | Structure (SMILES) | IC50 (OvCAR3 cells)
< 1 µM | 1 to 10 µM | Cc1cccn2c(-c3ccccc3)c(-c3ccc(CN4CCC(c5n[nH]c(-c6ccccn6)n5)CC4)cc3)nc12 [Example 8, 8-methyl-3-phenyl-2-(4-{[4-(5-pyridin-2-yl-1,2,4-triazol-3-yl)piperidin-1-yl]methyl}phenyl)imidazo[1,2-a]pyridine] | < 10 µM
< 1 µM | < 1 µM | c1ccc(-c2c(-c3ccc(CN4CCC(c5n[nH]c(-c6ccccn6)n5)CC4)cc3)nc3sccn23)cc1 [Example 10, 5-phenyl-6-(4-{[4-(5-pyridin-2-yl-1,2,4-triazol-3-yl)piperidin-1-yl]methyl}phenyl)imidazo[2,1-b][1,3]thiazole] | < 10 µM
< 1 µM | 1 to 10 µM | c1ccc(-c2c(-c3ccc(CN4CCC(c5n[nH]c(-c6ccccn6)n5)CC4)cc3)nc3scnn23)cc1 [Example 11, 5-phenyl-6-(4-{[4-(5-pyridin-2-yl-1,2,4-triazol-3-yl)piperidin-1-yl]methyl}phenyl)imidazo[2,1-b][1,3,4]thiadiazole] | < 10 µM
< 1 µM | < 1 µM | Brc1cnc2nc(-c3ccc(CN4CCC(c5n[nH]c(-c6ccccn6)n5)CC4)cc3)c(-c3ccccc3)n2c1 [Example 12, 6-bromo-3-phenyl-2-(4-{[4-(5-pyridin-2-yl-1,2,4-triazol-3-yl)piperidin-1-yl]methyl}phenyl)imidazo[1,2-a]pyrimidine] | < 10 µM
< 1 µM | 1 to 10 µM | COc1cccn2c(-c3ccccc3)c(-c3ccc(CN4CCC(c5n[nH]c(-c6ccccn6)n5)CC4)cc3)nc12 [Example 13, 8-methoxy-3-phenyl-2-(4-{[4-(5-pyridin-2-yl-1,2,4-triazol-3-yl)piperidin-1-yl]methyl}phenyl)imidazo[1,2-a]pyridine] | < 10 µM
< 1 µM | 1 to 10 µM | Fc1cccc(-c2c(-c3ccc(CN4CCC(c5n[nH]c(-c6ccccn6)n5)CC4)cc3)nc3ccccn23)c1 [Example 14, 3-(3-fluorophenyl)-2-(4-{[4-(5-pyridin-2-yl-1,2,4-triazol-3-yl)piperidin-1-yl]methyl}phenyl)imidazo[1,2-a]pyridine] | < 10 µM
< 1 µM | 1 to 10 µM | c1ccc(-c2nc(C3CCN(Cc4ccc(-c5nc6ccccn6c5-c5cccs5)cc4)CC3)n[nH]2)nc1 [Example 17, 2-(4-{[4-(5-pyridin-2-yl-1,2,4-triazol-3-yl)piperidin-1-yl]methyl}phenyl)-3-(2-thienyl)imidazo[1,2-a]pyridine] | < 10 µM
< 1 µM | < 1 µM | Cc1ccn2c(-c3ccccc3)c(-c3ccc(CN4CCC(c5n[nH]c(-c6ccccn6)n5)CC4)cc3)nc2n1 [Example 19, 7-methyl-3-phenyl-2-(4-{[4-(5-pyridin-2-yl-1,2,4-triazol-3-yl)piperidin-1-yl]methyl}phenyl)imidazo[1,2-a]pyrimidine] | < 10 µM
